Assay results from patent publication US8053583B2, “Anti-cancer compound and manufacturing method thereof” (National Defense Medical Center, priority 2008, dated 2011).
Entries after “also recorded” stand apart in the source; their conditions may differ.

Assays:
[1] = tested on: GBM 8401 (human brain glioblastoma) cells; experiment: MTT colorimetric assay, GBM 8401 cells; conditions: for viability at 10 µM: Homo sapiens, read-out: Cell viability (%) GBM 8401, conc. 10 μM; for inhibition of proliferation of tumor cells GBM 8401 (in words): primary screening, 10 μM, criterion viability less than 80%
Text: (§1) MTT (tetrazole) assay used to determine tumor viability is based on measurement of the activity of dehydrogenase to determine cell growth conditions. In live cells, dehydrogenase in active mitochondria converts yellow MTT [3-(4,5-dimethylthiazol-2-yl)-2,5-diphenyltetra zolium bromide] into purple formazan on the reductive cleavage of its tetrazolium ring. The formazan crystal is examined under the microscope. While the mitochondria in dead cells are without active dehydrogenase, no crystal is generated and the color remains yellow. After adding MTT into cell cultures and reacting for 2 hours, the amount of generated formazan precipitate is proportional to total amount of dehydrogenase. Removing the culture medium, add DMSO to dissolve the purple formazan precipitate. Then measure the absorbance of the precipitate by is measured by the spectrophotometer at 560/670 nm so as to learn inhibition effect of drugs acted on normal cells and tumor cells.
(§2) GBM 8401, GBM 8901 (human brain glioblastoma) and SVG p12 (human brain astroglia)cells line are selected to be used in 96 well petri dishes. Each well is filled into the same amount of cells-about 5000 cells per well. After being cultured for 24 hours and cells anchor/attach, the 96 wells are divided into two groups-an experimental group and a control group containing no samples. The samples are diluted into 10 μg/mL by culture medium. Take 200 μL of each sample and add into the experimental group and the control group is added with 200 μL culture medium without samples. After 46 hours of culture, each well is added with 10 μL MTT solution, incubate cells at 37° C., 5% CO2 for 2 hours.
(§3) Then each well is added with 100 μL, dissolving formazan. Shaking for 10 minutes and measure the absorbance at 560/670 nm of the sample by the spectrometer. The data of the experimental group is divided by the data of the control group to get the estimated cell viability.
(§4) Three cell lines-GBM 8401, GBM 8901, SVG p12 (normal) are used in cytotoxicity tests of 1,8-bis-substituted amidoanthraquinone. After reacting with the drug for 46 hours, the cells are reacted with certain amount of MTT solution. After 2 hours, DMSO is used to dissolve formazan and O.D. (optical density) at 560/670 nm is measured. Then calculate the radios of the experimental groups (with drugs) to the control groups (without drugs).

[2] = MTT colorimetric assay, normal SVG p12 cells; conditions: human, SVG p12 cells (normal human brain astroglia), Cell viability (%) SVG p12, conc. 10 μM, 46 hours with drug, then 2 hours MTT, ratio to control group without drug
Text: as §1, §2, §3, §4

[3] = tested on: GBM 8901 (human brain glioblastoma) cells; experiment: MTT colorimetric assay, GBM 8901 cells; conditions: for viability at 10 µM: Homo sapiens, read-out: Cell viability (%) GBM 8901, conc. 10 μM; for inhibition of growth of tumor cells GBM 8901 (in words): primary screening, 10 μM, criterion viability less than 80%
Text: as §1, §2, §3, §4

[4] = 46 hours with drug, then 2 hours MTT, ratio to control group without drug
[5] = conc. 10 μM, 46 hours with drug, then 2 hours MTT, ratio to control group without drug

Row | Molecule | viability at 10 µM [1, 4] | viability at 46 h, 10 μM [2] | melting point | viability at 10 µM [3, 4] | inhibition of proliferation of tumor cells GBM 8401 (in words) [1] | inhibition of growth of tumor cells GBM 8901 (in words) [3] | Cell viability (%) GBM 8401 [1, 5] | Cell viability (%) GBM 8901 [3, 5]
1 | CNCCC(=O)Nc1cccc2c1C(=O)c1c(NC(=O)CCNC)cccc1C2=O [Compound 4h] | 9 ± 2% | 4% | 233 to 234 °C | 10 ± 1% |  |  |  | 
2 | CCN(C)CC(=O)Nc1cccc2c1C(=O)c1c(NC(=O)CN(C)CC)cccc1C2=O [Compound 3r, 1,8-Bis[2-(ethylmethylamino)acetamido]anthraquinone] | 90 ± 2% | 125 ± 7% | 186 to 187 °C | 98 ± 12% |  |  |  | 
3 | CN(C)CC(=O)Nc1cccc2c1C(=O)c1c(NC(=O)CN(C)C)cccc1C2=O [Compound 3m, 1,8-Bis[2-(dimethylamino)acetamido]anthraquinone] | 60 ± 5% | > 80% |  | 84 ± 9% | inhibit proliferation; also recorded: quite good inhibition effects |  |  | 
4 | CC(C)CNCCC(=O)Nc1cccc2c1C(=O)c1c(NC(=O)CCNCC(C)C)cccc1C2=O [Compound 4b, 1,8-Bis[3-(isobutylamino)propionamido]anthraquinone] | 4 ± 1% | 4% | 224 to 225 °C | 7 ± 3% |  |  |  | 
5 | CCN(C)CCC(=O)Nc1cccc2c1C(=O)c1c(NC(=O)CCN(C)CC)cccc1C2=O [Compound 4k] | 1 ± 3% | 2% | 129 to 130 °C | 7 ± 3% |  |  |  | 
6 | CC(C)NCCC(=O)Nc1cccc2c1C(=O)c1c(NC(=O)CCNC(C)C)cccc1C2=O [Compound 4i] | 2 ± 1% | 5 ± 1% | 105 to 106 °C | 8 ± 2% |  |  |  | 
7 | COC(=O)[C@@H](NCC(=O)Nc1cccc2c1C(=O)c1c(NC(=O)CN[C@@H](C(=O)OC)C(C)C)cccc1C2=O)C(C)C [Compound 3d, (L)-1,8-Bis[2-(valinemethyl ester)acetamido]anthraquinone] | 99 ± 40% | 87 ± 7% | 150 to 151 °C | 97 ± 22% |  |  |  | 
8 | CCN(CC)CCC(=O)Nc1cccc2c1C(=O)c1c(NC(=O)CCN(CC)CC)cccc1C2=O [Compound 4a, 1,8-Bis[3-(diethylamino)propionamido]anthraquinone] | 4% | 3% | 160 to 161 °C | 3 ± 2% |  |  |  | 
9 | COC(=O)[C@H](CC(C)C)NCC(=O)Nc1cccc2c1C(=O)c1c(NC(=O)CN[C@H](CC(C)C)C(=O)OC)cccc1C2=O [Compound 3g, 1,8-Bis[2-(leucinemethyl ester)acetamido]anthraquinone] | 111 ± 8% | 153 ± 11% | 238 to 239 °C | 89 ± 4% |  |  |  | 
10 | COC(=O)CN(C)CC(=O)Nc1cccc2c1C(=O)c1c(NC(=O)CN(C)CC(=O)OC)cccc1C2=O [Compound 3f, 1,8-Bis[2-(sacrocinemethyl ester)acetamido]anthraquinone] | 130 ± 20% | 172 ± 2% | 129 to 130 °C | 107 ± 5% |  |  |  | 
11 | COC(=O)[C@H](COC(C)(C)C)NCC(=O)Nc1cccc2c1C(=O)c1c(NC(=O)CN[C@H](COC(C)(C)C)C(=O)OC)cccc1C2=O [Compound 3t, 1,8-Bis[2-(tert-butyl-serinemethyl ester)acetamido]anthraquinone] | 98 ± 19% | > 80% |  | 69 ± 4% |  | inhibit growth |  | 
12 | CN(C)CCNCCC(=O)Nc1cccc2c1C(=O)c1c(NC(=O)CCNCCN(C)C)cccc1C2=O [Compound 4e, 1,8-Bis[2-(dimethylethanediamino)propionamido]anthraquinone] | 14 ± 2% | 13 ± 3% | 100 to 102 °C | 10 ± 5% |  |  |  | 
13 | COC(=O)[C@H]1CCCN1CC(=O)Nc1cccc2c1C(=O)c1c(NC(=O)CN3CCC[C@H]3C(=O)OC)cccc1C2=O [Compound 3c, 1,8-Bis[2-(prolinemethyl ester)acetamido]anthraquinone] | 83 ± 15% | 121 ± 5% | 170 to 171 °C | 96 ± 3% |  |  |  | 
14 | CCN(CC)CC(=O)Nc1cccc2c1C(=O)c1c(NC(=O)CN(CC)CC)cccc1C2=O [Compound 3l, 1,8-Bis[2-(diethylamino)acetamido]anthraquinone] | 91 ± 17% | 123 ± 13% | 228 to 229 °C | 94 ± 26% |  |  |  | 
15 | COC(=O)CNCC(=O)Nc1cccc2c1C(=O)c1c(NC(=O)CNCC(=O)OC)cccc1C2=O [Compound 3a, 1,8-Bis[2-(glycinmethyl ester)acetamido]anthraquinone] | 95 ± 10% | 93 ± 6% | 173 to 174 °C | 104 ± 2% |  |  |  | 
16 | (S)-1,8-Bis[2-(phenylglycin methyl ester)acetamido]anthraquinone [Compound 3j] |  |  |  |  | inhibit proliferation; also recorded: quite good inhibition effects | inhibit growth |  | 
17 | COC(=O)[C@H](C)NCC(=O)Nc1cccc2c1C(=O)c1c(NC(=O)CN[C@H](C)C(=O)OC)cccc1C2=O [Compound 3i, (D)-1,8-Bis[2-(alalinemethyl ester)acetamido]anthraquinone] |  |  |  |  | inhibit proliferation; also recorded: quite good inhibition effects |  | 64 ± 13% | 99 ± 11%
18 | CCCN(CCC)CC(=O)Nc1cccc2c1C(=O)c1c(NC(=O)CN(CCC)CCC)cccc1C2=O [Compound 3n, 1,8-Bis[2-(dipropylamino)acetamido]anthraquinone] | 106 ± 24% | 73 ± 30% |  | 73 ± 5% |  | inhibit growth |  | 
19 | CCCN(C)CC(=O)Nc1cccc2c1C(=O)c1c(NC(=O)CN(C)CCC)cccc1C2=O [Compound 3s] | 103 ± 9% | 132 ± 3% | 159 to 160 °C | 107 ± 9% |  |  |  | 
20 | CN(C)CCC(=O)Nc1cccc2c1C(=O)c1c(NC(=O)CCN(C)C)cccc1C2=O [Compound 4f] | 3% | 4 ± 3% | 116 to 117 °C | 7 ± 3% |  |  |  | 
21 | CCNCC(=O)Nc1cccc2c1C(=O)c1c(NC(=O)CNCC)cccc1C2=O [Compound 3p, 1,8-Bis[2-(ethanamino)acetamido]anthraquinone] | 2 ± 1% | 3 ± 1% |  | 4 ± 1% | inhibit proliferation; also recorded: quite good inhibition effects | inhibit growth |  | 
22 | O=C(CCNCc1cc(F)cc(F)c1)Nc1cccc2c1C(=O)c1c(NC(=O)CCNCc3cc(F)cc(F)c3)cccc1C2=O [Compound 4c, 1,8-Bis[3-(3,5-difluorobenzylamino)propionamido]anthraquinone] | 14 ± 1% | > 80% | 190 to 191 °C | 11 ± 9% |  |  |  | 
23 | CN(C)CCCNCCC(=O)Nc1cccc2c1C(=O)c1c(NC(=O)CCNCCCN(C)C)cccc1C2=O [Compound 4j, 1,8-Bis[2-(dimethylpropanediamino)propionamido]anthraquinone] | 9 ± 2% | 33 ± 16% | 107 to 108 °C | 22 ± 9% |  |  |  | 
24 | CC(C)(C)OC(=O)NCCNCCC(=O)Nc1cccc2c1C(=O)c1c(NC(=O)CCNCCNC(=O)OC(C)(C)C)cccc1C2=O [Compound 4d, 1,8-Bis[2-(N-Boc-ethanediamino)propionamido]anthraquinone] | 10 ± 5% | 8 ± 1% | 101 to 102 °C | 4% |  |  |  | 
25 | CC(C)CNCC(=O)Nc1cccc2c1C(=O)c1c(NC(=O)CNCC(C)C)cccc1C2=O [Compound 3k, 1,8-Bis[2-(isobutylamino)acetamido]anthraquinone] | 95 ± 12% |  |  | 57 ± 16% |  | inhibit growth |  | 
26 | O=C(CNCc1cccc(C(F)(F)F)c1)Nc1cccc2c1C(=O)c1c(NC(=O)CNCc3cccc(C(F)(F)F)c3)cccc1C2=O [Compound 3q, 1,8-Bis [2-(3-(trifluoromethyl)benzylamino)acetamido]anthraquinone] | 120 ± 26% | 135 ± 20% | 190 to 191 °C | 83 ± 10% |  |  |  | 
27 | CC(C)NCC(=O)Nc1cccc2c1C(=O)c1c(NC(=O)CNC(C)C)cccc1C2=O [Compound 3o, 1,8-Bis[2-(isopropylamino)acetamido]anthraquinone] | 4 ± 1% | 4 ± 1% |  | 5 ± 1% | inhibit proliferation; also recorded: quite good inhibition effects | inhibit growth |  | 
28 | CCCN(CCC)CCC(=O)Nc1cccc2c1C(=O)c1c(NC(=O)CCN(CCC)CCC)cccc1C2=O [Compound 4g] | 5 ± 1% | 4% | 129 to 130 °C | 8 ± 2% |  |  |  | 
